# Results from patent US20160199434A1, “COMPOSITIONS AND METHODS FOR MODULATING DNA METHYLATION” (OHIO STATE INNOVATION FOUNDATION, priority 2013, published 2016).
# “Also recorded” adds a separate entry of the source.
# Tests used:
# [1] = test system: H1703 squamous cell carcinoma; assay: XTT cell survival assay, H1703 lung cancer cells; format: cell-based, human; settings: H1703, increasing doses (FIG. 13B)
# From the text: FIGS. 13A-13B show XTT cell survival assays for normal lung epithelial cells (BEAS-2B) and lung cancer cells (H1703 squamous cell carcinoma and A549 adenocarcinoma) in response to increasing doses of AKB-6899.
# [2] = test system: desmoplakin (DSP) gene promoter; assay: Methylation-specific PCR of DSP promoter in PyMT breast cancer cells; format: cell-based, mouse
# Protocol: (§1) FIGS. 3A-3E show the effect of AKB-6899 (25 μM) on methylation of the desmoplakin (DSP) gene promoter in PyMT breast cancer cells (3A), human MDA-MB-231 triple negative breast cancer cells (3B), human C8161.9 melanoma cells (3C), and human MCF-7 breast cancer cells (3D). In FIG. 3A, the DSP promoter was 100% unmethylated (AKB-6899) vs. 99.99% methylated (vehicle). In FIG. 3B, the DSP promoter was 99.62% unmethylated (AKB-6899) v. 99.89% (vehicle). In FIG. 3C, the DSP promoter was 99.90% unmethylated (AKB-6899) v. 42.04% (vehicle). In FIG. 3D, the DSP promoter was 92.48% unmethylated (AKB-6899) v. 98.48% (vehicle). In FIG. 3E, when compared to the vehicle (DMSO), treatment of PyMT cells with AKB-6899 increased DSP expression.
# (§2) Because DSP is regulated by ER/PR expression, and because late-stage PyMT tumors lose ER/PR-positivity and heavily metastasize to the lymph nodes and lungs (Lin et al., 2003), the effects of AKB-6899 on more global events that regulate gene expression was evaluated. PyMT tumor cells in culture were treated with DMSO or AKB-6899. Methylation-specific PCR for CpG islands in the desmoplakin promoter were performed. […] Trypan Blue confirmed no cell death in AKB-6899 treated cells when compared to control cells. The experiment was repeated and RNA was isolated from the cells. RT-PCR was performed and the regulation of DNA methyltransferases (DNMTs) was evaluated. […] (FIG. 1A). The decrease in mRNA levels of DNMT-1 and DNMT-3a increased the mRNA level of DSP (FIG. 4A) and increased desmoplakin protein expression (FIG. 5A).
# [3] = test system: DNMT-3b; assay: DNMT-3b mRNA expression in lungs of normal mice after systemic administration; format: in vivo, mouse; settings: i.p. 17.5 mg/kg three times per week for three weeks, vs DMSO
# Protocol: (§3) FIGS. 14A-14C show the effects of systemic administration of AKB-6899. Mice were treated three times per week for three weeks with either i.p. AKB-6899 or i.p. DMSO. The lungs were removed and assayed to determine DNMT mRNA expression, percent CpG methylation, and fold change in mRNA. […] The data was standardized to 1.0 by the DMSO levels of the respective gene expression, (n=4 lungs per condition).
# [4] = test system: desmoplakin (DSP) gene promoter; assay: Methylation of DSP promoter in MCF-7 breast cancer cells; format: cell-based, human
# Protocol: as §1
# The gene expression signatures from the tumors of PyMT breast tumor-bearing mice that were treated with either vehicle or AKB-6899 were evaluated. […] Methylation-specific PCR on the desmoplakin promoter was performed. The level of hypomethylation was near complete.
# [5] = test system: DSP promoter; assay: CpG methylation of DSP promoter in lungs of normal mice; format: in vivo, mouse; settings: i.p., three weeks (FIG. 14B)
# Protocol: as §3
# [6] = test system: DNMT-1; assay: DNMT-1 mRNA expression by RT-PCR in PyMT tumor cells; format: cell-based, mouse; settings: for DNMT-1 mRNA expression: PyMT tumor cells, 24 hours, compared to DMSO (FIG. 1A)
# Protocol: FIGS. 1A-1E show DNA methyltransferase mRNA expression in vitro and in vivo. […] PyMT tumor cells were left untreated, were treated with DMSO, or were treated with AKB-6899 (10, 25, or 50 μM) for 24 hours. The cells were subjected to Trizol extraction to recover total RNA. cDNA was synthesized for RT-PCR of DNMT-1 and DNMT-3a mRNA expression. […] Human MDA-MB-231 tumor cells were left untreated, were treated with DMSO, or were treated with AKB-6899 (25 μM) for 24 hours. Total RNA was isolated for RT-PCR. FIG. 1C (DNMT-1), FIG. 1D (DNMT-3a), and FIG. 1E (DNMT-3b) compare the effect of AKB-6899 with the effect of 5-aza-2′deoxycytidine (5-AZA) as assessed by RT-PCR in human cervical tumors implanted in mice that were either untreated (UTX), treated with DMSO, treated with 5-AZA, or treated with AKB-6899 (17.5 mg/kg).
# as §2
# [7] = test system: panel of 14 common tumor suppressor genes; assay: mRNA expression of 14 tumor suppressor genes in H1703 cells; format: cell-based, human
# From the text: FIGS. 12A-12D show the level of mRNA expression for a panel of 14 common tumor suppressor genes in two types of human lung cancer cells (i.e., H1703 squamous cell carcinoma in FIG. 12A and A549 adenocarcinoma in FIG. 12B). […] All of the tumor suppressor mRNAs were augmented in response to AKB-6899 but one, the CDKN1C gene in A549 adenocarcinoma cells, in which expression levels were 0.1 (AKB10) and 0.9 (AKB50) compared to DMSO standardized to 1.0. In FIGS. 12A-12B, the following apply: “1”=DMSO, “2”=AKB-6899 (10 μM), “3”=AKB-6899 (50 μM), and “4”=combination of Decitabine (5 μM)/PBA (2 mM). FIGS. 12C and 12D are raw values for mRNA expression of these 14 genes.
# [8] = test system: RASSF1 promoter; assay: CpG methylation of RASSF1 promoter in lungs of normal mice; format: in vivo, mouse; settings: i.p., three weeks (FIG. 14B)
# Protocol: as §3
# [9] = test system: DNMT-3b; assay: DNMT-3b transcription in H1703 lung cancer cells; format: cell-based, human; settings: H1703 cells in vitro, dose-dependent (FIG. 10A)
# From the text: (§4) In FIG. 10A, AKB-6899 inhibited DNMT-1, DNMT-3a, and DNMT-3b transcription in a dose-dependent manner in human squamous cell carcinoma lung cancer cells (H1703), in vitro. The DMSO-treated DNMT mRNAs are over 1.0, meaning the level of expression is higher than the housekeeping control gene, CAP1. In FIG. 10B, AKB-6899 inhibited DNMT-3a and DNMT-3b transcription in human adenocarcinoma lung cancer cells (A549). The DMSO-treated DNMT mRNAs are under 1.0, meaning the level of expression is lower than the housekeeping control gene, CAP1.
# [10] = test system: DNMT-3a; assay: DNMT-3a transcription in H1703 lung cancer cells; format: cell-based, human; settings: H1703 cells in vitro, dose-dependent (FIG. 10A)
# From the text: as §4
compound,measurement,setting,value
"O=C(O)CNC(=O)c1ncc(-c2cccc(F)c2)cc1O [AKB-6899, {[5-(3-Fluorophenyl)-3-hydroxypyridine-2-carbonyl]amino}acetic acid]",cell survival / toxicity,[1],pronounced toxicity
same,DSP promoter unmethylated,"[2]; PyMT breast cancer cells, 25 μM (FIG. 3A)",100%
same,desmoplakin promoter methylation after treatment,[2]; PyMT mouse breast cancer cells,0.0%
same,methylation state of DSP promoter CpG islands (in words),[2]; PyMT tumor cells in culture,entirely unmethylated; also recorded: near complete
same,DNMT-3b expression in lungs,[3],inhibited
same,level of hypomethylation of desmoplakin promoter (in words),[4],near complete
same,DSP promoter unmethylated,[4]; 25 μM (FIG. 3D),92.48%
same,methylation of DSP promoter in lungs,[5],demethylated
same,DNMT-1 mRNA level,"[6]; PyMT tumor cells in culture, concentration not given",significant decreases; also recorded: downregulated
same,DNMT-1 mRNA expression,[6]; 10 μM,significantly inhibited
same,DNMT-1 mRNA expression,[6]; 25 μM,significantly inhibited
same,DNMT-1 mRNA expression,[6]; 50 μM,significantly inhibited
same,tumor suppressor mRNA expression,"[7]; H1703, 10 μM and 50 μM, vs DMSO",augmented
same,induction of mRNA expression in H1703 compared with A549,"[7]; H1703 vs A549, Decitabine 5 μM/PBA 2 mM",more effective
same,methylation of RASSF1 promoter in lungs,[8],demethylated
same,DNMT-3b transcription,[9],inhibited
same,DNMT-3a transcription,[10],inhibited
